Key:
Assay in all cases: Eurofins kinase panel
Type in all cases: biochemical
Settings in all cases: read-out: Inhibition rate (%)
CaMKK2(h) = molecular target: T1, CaMKK2(h) (Homo sapiens, UniProt Q96RR4)
T1 construct: purchased Eurofins (KinaseProfiler)

DCAMKL2(h) = molecular target: T2, DCAMKL2(h) (Homo sapiens, UniProt Q8N568)
T2 construct: purchased Eurofins (KinaseProfiler)
T2 sequence (Q8N568 1-766): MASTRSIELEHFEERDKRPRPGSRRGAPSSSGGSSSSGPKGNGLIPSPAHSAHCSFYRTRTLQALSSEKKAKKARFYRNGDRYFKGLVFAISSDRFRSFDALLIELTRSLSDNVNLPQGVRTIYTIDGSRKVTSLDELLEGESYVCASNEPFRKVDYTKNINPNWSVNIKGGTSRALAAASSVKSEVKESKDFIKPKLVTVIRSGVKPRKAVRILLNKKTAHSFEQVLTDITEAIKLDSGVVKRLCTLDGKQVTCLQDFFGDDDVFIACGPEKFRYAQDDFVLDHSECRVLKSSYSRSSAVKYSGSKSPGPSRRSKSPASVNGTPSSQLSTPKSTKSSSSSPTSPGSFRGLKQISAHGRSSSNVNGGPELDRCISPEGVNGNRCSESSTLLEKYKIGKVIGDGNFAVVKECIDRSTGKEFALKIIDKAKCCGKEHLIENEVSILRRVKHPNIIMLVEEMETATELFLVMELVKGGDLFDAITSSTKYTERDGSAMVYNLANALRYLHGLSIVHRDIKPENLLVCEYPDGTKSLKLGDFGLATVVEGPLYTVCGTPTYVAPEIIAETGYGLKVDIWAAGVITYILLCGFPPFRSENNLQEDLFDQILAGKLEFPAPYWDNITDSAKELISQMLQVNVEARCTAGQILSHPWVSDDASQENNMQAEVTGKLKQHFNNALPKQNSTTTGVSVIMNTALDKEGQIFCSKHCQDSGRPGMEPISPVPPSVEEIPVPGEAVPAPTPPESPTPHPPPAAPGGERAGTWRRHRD

NIM1(h) = molecular target: T3, NIM1(h) (Homo sapiens, UniProt Q8IY84)
T3 construct: purchased Eurofins (KinaseProfiler)
T3 sequence (Q8IY84 whole entry): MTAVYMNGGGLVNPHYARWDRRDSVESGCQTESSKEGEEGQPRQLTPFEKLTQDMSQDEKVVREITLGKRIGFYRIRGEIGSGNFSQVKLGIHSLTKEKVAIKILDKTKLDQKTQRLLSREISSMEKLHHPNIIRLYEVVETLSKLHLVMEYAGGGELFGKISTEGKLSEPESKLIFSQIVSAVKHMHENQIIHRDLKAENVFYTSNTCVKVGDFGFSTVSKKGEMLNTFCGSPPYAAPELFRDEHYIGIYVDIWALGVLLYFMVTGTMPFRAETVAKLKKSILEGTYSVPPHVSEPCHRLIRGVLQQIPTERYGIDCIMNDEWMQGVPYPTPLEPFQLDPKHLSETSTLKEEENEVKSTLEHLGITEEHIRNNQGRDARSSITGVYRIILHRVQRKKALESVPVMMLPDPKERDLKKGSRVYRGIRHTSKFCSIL

PAK3(h) = molecular target: T4, PAK3(h) (Homo sapiens, UniProt O75914)
T4 construct: purchased Eurofins (KinaseProfiler)
T4 sequence (O75914 whole entry): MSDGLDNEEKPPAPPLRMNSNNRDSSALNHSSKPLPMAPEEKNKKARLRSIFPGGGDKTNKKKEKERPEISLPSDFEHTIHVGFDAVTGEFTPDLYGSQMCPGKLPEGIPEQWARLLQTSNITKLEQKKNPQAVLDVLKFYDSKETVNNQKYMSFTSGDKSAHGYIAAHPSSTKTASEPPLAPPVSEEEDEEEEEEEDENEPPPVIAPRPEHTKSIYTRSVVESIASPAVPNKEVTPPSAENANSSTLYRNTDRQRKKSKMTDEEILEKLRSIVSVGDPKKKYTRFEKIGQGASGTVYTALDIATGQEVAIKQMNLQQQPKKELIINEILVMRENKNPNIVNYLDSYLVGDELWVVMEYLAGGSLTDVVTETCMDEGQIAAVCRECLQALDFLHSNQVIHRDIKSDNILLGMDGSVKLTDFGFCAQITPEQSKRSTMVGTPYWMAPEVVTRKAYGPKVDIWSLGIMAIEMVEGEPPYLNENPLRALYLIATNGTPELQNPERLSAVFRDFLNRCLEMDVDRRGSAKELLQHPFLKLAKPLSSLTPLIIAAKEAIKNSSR

PDGFRβ(h) = molecular target: T5, PDGFRβ(h) (Homo sapiens, UniProt P09619)
T5 construct: purchased Eurofins (KinaseProfiler)
T5 sequence (P09619 33-1106): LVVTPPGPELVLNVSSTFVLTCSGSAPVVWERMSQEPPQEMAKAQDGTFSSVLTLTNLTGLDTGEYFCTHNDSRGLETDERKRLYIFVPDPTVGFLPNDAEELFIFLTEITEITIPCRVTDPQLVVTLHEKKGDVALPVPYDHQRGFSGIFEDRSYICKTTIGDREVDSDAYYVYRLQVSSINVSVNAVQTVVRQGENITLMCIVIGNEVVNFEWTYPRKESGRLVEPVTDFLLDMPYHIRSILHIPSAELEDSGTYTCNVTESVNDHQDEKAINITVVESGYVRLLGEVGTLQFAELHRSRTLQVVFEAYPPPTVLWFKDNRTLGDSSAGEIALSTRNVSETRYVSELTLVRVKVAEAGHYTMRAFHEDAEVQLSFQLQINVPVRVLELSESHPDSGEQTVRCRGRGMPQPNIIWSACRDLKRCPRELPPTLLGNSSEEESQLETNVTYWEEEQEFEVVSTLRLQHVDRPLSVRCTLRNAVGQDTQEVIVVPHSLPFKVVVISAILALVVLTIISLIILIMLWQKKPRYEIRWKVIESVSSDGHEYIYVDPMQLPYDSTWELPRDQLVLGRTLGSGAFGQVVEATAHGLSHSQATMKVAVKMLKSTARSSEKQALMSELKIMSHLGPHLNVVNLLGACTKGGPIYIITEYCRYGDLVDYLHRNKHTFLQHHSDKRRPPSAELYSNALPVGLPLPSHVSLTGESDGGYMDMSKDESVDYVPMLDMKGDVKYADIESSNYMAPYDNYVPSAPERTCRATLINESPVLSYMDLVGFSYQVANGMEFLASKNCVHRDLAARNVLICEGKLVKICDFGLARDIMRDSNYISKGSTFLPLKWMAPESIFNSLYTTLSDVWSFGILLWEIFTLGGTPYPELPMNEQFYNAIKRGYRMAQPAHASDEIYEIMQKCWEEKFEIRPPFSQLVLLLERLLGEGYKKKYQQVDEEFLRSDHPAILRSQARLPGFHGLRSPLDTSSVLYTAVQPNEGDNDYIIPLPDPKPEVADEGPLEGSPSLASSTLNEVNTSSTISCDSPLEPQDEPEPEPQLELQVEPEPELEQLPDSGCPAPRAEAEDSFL

[1] = molecular target: T6, PI3 Kinase (p110α(H1047R)/p85α)(h) (Homo sapiens, UniProt P42336, H1047R)
T6 construct: purchased Eurofins (KinaseProfiler)
T6 sequence (P42336 whole entry H1047R): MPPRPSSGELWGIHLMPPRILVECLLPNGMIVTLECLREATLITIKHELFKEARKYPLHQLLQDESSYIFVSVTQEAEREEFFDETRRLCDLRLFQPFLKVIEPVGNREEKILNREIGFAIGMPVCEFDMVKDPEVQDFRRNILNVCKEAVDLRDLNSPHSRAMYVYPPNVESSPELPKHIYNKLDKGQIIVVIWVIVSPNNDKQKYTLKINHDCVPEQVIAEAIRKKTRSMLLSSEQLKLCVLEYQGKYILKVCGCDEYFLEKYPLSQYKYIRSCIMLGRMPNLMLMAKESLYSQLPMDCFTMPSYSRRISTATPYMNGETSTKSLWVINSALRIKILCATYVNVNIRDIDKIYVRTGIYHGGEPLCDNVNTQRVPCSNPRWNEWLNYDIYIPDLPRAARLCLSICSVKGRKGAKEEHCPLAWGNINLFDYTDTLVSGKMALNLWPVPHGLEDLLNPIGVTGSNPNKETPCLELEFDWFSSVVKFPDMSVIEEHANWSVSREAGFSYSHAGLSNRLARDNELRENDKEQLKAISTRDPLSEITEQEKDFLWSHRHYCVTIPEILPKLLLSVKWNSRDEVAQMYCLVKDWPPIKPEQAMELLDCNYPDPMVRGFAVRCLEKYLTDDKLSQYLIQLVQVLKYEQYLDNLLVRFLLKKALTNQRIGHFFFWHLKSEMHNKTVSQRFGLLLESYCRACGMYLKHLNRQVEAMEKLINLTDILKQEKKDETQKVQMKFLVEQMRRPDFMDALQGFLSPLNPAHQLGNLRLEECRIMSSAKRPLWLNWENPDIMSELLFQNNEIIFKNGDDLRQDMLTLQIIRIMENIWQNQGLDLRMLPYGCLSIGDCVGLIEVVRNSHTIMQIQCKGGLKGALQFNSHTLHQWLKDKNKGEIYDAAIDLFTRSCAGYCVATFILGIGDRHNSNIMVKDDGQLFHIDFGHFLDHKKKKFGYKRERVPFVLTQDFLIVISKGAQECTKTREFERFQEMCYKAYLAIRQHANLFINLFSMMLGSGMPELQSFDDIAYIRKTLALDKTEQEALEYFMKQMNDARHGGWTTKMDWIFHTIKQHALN
T6 sequence (P27986 whole entry partner): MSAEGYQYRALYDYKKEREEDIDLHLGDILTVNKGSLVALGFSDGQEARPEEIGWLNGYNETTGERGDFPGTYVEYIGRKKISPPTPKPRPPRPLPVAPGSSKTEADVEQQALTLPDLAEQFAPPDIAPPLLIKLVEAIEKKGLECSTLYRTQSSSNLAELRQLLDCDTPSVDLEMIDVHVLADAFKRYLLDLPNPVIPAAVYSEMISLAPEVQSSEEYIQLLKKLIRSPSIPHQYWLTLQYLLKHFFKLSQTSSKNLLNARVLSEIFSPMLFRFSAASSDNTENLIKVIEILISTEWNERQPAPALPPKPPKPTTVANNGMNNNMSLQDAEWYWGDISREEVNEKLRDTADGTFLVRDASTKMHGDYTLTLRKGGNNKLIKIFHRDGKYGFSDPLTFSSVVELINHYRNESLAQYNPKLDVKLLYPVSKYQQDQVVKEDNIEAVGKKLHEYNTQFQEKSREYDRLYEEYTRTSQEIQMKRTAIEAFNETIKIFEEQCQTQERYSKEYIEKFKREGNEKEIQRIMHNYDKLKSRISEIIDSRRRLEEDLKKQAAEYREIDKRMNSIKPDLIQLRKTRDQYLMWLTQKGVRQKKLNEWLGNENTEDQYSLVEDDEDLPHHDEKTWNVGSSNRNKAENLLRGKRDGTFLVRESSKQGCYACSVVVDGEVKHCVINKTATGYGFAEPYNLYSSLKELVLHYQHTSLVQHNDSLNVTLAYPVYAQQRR

Plk4(h) = molecular target: T7, Plk4(h) (Homo sapiens, UniProt O00444)
T7 construct: purchased Eurofins (KinaseProfiler)
T7 sequence (O00444 1-970): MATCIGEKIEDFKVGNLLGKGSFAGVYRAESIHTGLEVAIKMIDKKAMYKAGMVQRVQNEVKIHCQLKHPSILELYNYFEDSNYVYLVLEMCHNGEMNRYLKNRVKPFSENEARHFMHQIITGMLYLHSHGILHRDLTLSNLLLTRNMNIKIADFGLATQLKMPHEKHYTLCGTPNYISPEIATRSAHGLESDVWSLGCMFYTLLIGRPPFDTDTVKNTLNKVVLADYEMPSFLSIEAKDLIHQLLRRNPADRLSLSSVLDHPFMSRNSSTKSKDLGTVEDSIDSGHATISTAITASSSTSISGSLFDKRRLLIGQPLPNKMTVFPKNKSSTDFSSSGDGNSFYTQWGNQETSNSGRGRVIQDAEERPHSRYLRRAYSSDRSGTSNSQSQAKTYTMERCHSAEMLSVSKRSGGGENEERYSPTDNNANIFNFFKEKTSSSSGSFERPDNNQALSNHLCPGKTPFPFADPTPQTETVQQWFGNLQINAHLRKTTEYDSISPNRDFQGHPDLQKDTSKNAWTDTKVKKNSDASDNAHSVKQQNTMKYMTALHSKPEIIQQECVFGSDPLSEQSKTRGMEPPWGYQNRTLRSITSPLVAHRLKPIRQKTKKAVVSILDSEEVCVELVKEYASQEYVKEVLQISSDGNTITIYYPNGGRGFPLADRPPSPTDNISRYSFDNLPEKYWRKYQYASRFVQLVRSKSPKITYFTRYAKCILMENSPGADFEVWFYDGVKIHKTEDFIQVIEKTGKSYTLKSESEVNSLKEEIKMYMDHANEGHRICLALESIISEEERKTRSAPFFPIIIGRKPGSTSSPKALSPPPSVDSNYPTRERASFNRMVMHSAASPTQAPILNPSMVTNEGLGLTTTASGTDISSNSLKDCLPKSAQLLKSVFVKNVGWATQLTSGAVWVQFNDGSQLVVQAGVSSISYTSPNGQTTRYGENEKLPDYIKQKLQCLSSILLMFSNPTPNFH

SAPK3(h) = molecular target: T8, SAPK3(h) (Homo sapiens, UniProt P53778)
T8 construct: purchased Eurofins (KinaseProfiler)
T8 sequence (P53778 1-367): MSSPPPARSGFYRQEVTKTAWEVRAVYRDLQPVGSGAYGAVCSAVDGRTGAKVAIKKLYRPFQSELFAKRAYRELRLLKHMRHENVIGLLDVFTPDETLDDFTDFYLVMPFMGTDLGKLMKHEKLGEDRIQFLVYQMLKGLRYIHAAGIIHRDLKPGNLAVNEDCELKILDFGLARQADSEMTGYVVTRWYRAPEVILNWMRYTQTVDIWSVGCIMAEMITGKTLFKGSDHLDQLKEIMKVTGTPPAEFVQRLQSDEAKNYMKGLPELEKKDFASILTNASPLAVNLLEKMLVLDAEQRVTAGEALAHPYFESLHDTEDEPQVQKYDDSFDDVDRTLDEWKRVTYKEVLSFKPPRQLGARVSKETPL

T1 sequence (Q96RR4 whole entry): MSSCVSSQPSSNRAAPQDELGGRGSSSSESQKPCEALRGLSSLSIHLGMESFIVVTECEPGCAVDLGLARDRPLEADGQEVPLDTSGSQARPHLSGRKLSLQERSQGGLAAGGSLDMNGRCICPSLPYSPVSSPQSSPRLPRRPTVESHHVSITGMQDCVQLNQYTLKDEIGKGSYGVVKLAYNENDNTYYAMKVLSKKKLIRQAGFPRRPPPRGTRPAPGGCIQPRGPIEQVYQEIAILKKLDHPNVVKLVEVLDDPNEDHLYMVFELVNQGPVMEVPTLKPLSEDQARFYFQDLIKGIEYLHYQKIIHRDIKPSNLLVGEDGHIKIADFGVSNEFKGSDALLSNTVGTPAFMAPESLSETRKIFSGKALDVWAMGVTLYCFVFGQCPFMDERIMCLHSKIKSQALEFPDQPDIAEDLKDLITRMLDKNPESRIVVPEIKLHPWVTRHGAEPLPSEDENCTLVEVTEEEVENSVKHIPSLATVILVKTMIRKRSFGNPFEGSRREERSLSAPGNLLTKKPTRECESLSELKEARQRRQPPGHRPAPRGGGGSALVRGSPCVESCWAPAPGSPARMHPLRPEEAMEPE

## COc1cc(OC)c(Cl)c(-c2ccc3c(NC(=O)c4ccc(N5CCNC(C)(C)C5)cc4)n[nH]c3n2)c1Cl [3D185]
CaMKK2(h); 10 nM
  inhibition at 0.01 µM: -4%
CaMKK2(h); 100 nM
  inhibition at 0.1 µM: -22%
CaMKK2(h); 1000 nM
  inhibition at 1 µM: 4%
DCAMKL2(h); 10 nM
  inhibition at 0.01 µM: 8%
DCAMKL2(h); 100 nM
  inhibition at 0.1 µM: 18%
DCAMKL2(h); 1000 nM
  inhibition at 1 µM: 28%
NIM1(h); 10 nM
  inhibition at 0.01 µM: -9%
NIM1(h); 100 nM
  inhibition at 0.1 µM: 0%
NIM1(h); 1000 nM
  inhibition at 1 µM: 0%
PAK3(h); 10 nM
  inhibition at 0.01 µM: -1%
PAK3(h); 100 nM
  inhibition at 0.1 µM: -3%
PAK3(h); 1000 nM
  inhibition at 1 µM: 7%
PDGFRβ(h); 10 nM
  inhibition at 0.01 µM: 1%
PDGFRβ(h); 100 nM
  inhibition at 0.1 µM: -1%
PDGFRβ(h); 1000 nM
  inhibition at 1 µM: 17%
[1]; 10 nM
  inhibition at 0.01 µM: 1%
[1]; 100 nM
  inhibition at 0.1 µM: 3%
[1]; 1000 nM
  inhibition at 1 µM: -5%
Plk4(h); 10 nM
  inhibition at 0.01 µM: -18%
Plk4(h); 100 nM
  inhibition at 0.1 µM: -20%
Plk4(h); 1000 nM
  inhibition at 1 µM: -17%
SAPK3(h); 10 nM
  inhibition at 0.01 µM: -4%
SAPK3(h); 100 nM
  inhibition at 0.1 µM: -12%
SAPK3(h); 1000 nM
  inhibition at 1 µM: -7%

From publication PMC6704710, “Preclinical evaluation of 3D185, a novel potent inhibitor of FGFR1/2/3 and CSF-1R, in FGFR-dependent and macrophage-dominant cancer models” (Journal of Experimental & Clinical Cancer Research : CR, 2019)
